The record followed here is patent US5420142A, “Certain 3-formyl-1, 4-dihydropyridines and their pharmaceutical composition and use” (Bayer Aktiengesellschaft, priority 1991, dated 1995).

For this experiment, the system named is isolated guinea pig heart auricles. Briefly: Substance effects on the contraction amplitude of isolated guinea pig heart auricles. The settings on record: Cavia porcellus, active compound concentration 10^-4 g/l, read-out: Contractility (% control). From the text:
The cardiac and vascular effects were found on isolated perfused guinea pig hearts. To this end, the hearts of guinea pigs of 250 to 350 g weight are used. The animals are killed by a blow to the head, the thorax is opened, and a metal cannula is tied into the exposed aorta. The heart is separated out of the thorax with the lungs and connected to the perfusion apparatus via an aortic cannula with continuous perfusion. The lungs are separated at the roots of the lung. The perfusion medium used is a Krebs-Henseleit solution (1) (118.5 mmol/l of NaCl, 4.75 mmol/l of KCl, 1.19 mmol/1 of KH2 PO4, 1.19 mmol/l of MgSO4, 25 mmol/l of NaHCO3, 0.013 mmol/l of Na2 EDTA), the CaCl2 content of which is 1.2 mmol/l. 10 mmol/l of glucose are added as an energy-producing substrate. The solution is filtered free from particles before perfusion. The solution is aerated with carbogen (95% O2, 5% CO2) to maintain the pH 7.4. The hearts are perfused with a constant flow (10 ml/min) at 32° C. by means of a peristaltic pump.
For the measurement of cardiac function, a liquid-filled latex balloon which is connected to a pressure transducer via a liquid column is inserted into the left ventricle through the left auricle, and the isovolumetric contractions are recorded on a rapid recorder (Opie, L., J. Physiol., 180 (1965), 529-541). The perfusion pressure is recorded by means of a pressure transducer which is connected to the perfusion system upstream of the heart. Under these conditions, a reduction in the perfusion pressure indicates a coronary dilation, and an increase or decrease in the left-ventricular contraction amplitude indicates […] in the heart contractility. The compounds according to the invention are perfused into the perfusion system in suitable dilutions Just upstream of the isolated heart.
Substance effects on the contraction amplitude of isolated guinea pig heart auricles at an active compound concentration of 10^-4 g/l.

Turning to `CCOC(=O)C1=C(C)NC(C)=C(C=O)C1c1cccc2ncc(-c3ccccc3)cc12` (stereo not drawn) [Example 1, Ethyl 1,4-dihydro-2,6-dimethyl-3-formyl-4-(3-phenylquinolin-5-yl)-pyridine-5-carboxylate], the activation at 0.1 µg/mL was 32%.

With `CC1=C(C=O)C(c2cccc3ncc(-c4ccccc4)cc23)C(C(=O)OC(C)C)=C(C)N1` (stereo not drawn) [Example 3], the activation at 0.1 µg/mL came to 31%. For the compound `COC(=O)C1=C(C)NC(C)=C(C=O)C1c1cccc2ncc(-c3ccccc3)cc12` (stereo not drawn) [Example 4], the activation at 0.1 µg/mL was 41%.
